The source made the active and inactive calls.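 The calls were made as follows: active = phosphorylated EGFR protein level at least 30% below or above the solvent-only control; inactive = the rest.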
Biological target: Epidermal growth factor receptor (Homo sapiens) (UniProt P00533)
Experiment: change in phospho-EGFR levels, up or down, late-stage follow-up, counter-screen for KLF5 inhibitor project, DLD1 cells, chemiluminescent western blot, powder samples (AID 588613)
Conditions: DLD-1 cells, 24 h, at 10 µM, active compounds read high

Epidermal growth factor receptor (Homo sapiens), sequence (P00533 whole entry, looked up): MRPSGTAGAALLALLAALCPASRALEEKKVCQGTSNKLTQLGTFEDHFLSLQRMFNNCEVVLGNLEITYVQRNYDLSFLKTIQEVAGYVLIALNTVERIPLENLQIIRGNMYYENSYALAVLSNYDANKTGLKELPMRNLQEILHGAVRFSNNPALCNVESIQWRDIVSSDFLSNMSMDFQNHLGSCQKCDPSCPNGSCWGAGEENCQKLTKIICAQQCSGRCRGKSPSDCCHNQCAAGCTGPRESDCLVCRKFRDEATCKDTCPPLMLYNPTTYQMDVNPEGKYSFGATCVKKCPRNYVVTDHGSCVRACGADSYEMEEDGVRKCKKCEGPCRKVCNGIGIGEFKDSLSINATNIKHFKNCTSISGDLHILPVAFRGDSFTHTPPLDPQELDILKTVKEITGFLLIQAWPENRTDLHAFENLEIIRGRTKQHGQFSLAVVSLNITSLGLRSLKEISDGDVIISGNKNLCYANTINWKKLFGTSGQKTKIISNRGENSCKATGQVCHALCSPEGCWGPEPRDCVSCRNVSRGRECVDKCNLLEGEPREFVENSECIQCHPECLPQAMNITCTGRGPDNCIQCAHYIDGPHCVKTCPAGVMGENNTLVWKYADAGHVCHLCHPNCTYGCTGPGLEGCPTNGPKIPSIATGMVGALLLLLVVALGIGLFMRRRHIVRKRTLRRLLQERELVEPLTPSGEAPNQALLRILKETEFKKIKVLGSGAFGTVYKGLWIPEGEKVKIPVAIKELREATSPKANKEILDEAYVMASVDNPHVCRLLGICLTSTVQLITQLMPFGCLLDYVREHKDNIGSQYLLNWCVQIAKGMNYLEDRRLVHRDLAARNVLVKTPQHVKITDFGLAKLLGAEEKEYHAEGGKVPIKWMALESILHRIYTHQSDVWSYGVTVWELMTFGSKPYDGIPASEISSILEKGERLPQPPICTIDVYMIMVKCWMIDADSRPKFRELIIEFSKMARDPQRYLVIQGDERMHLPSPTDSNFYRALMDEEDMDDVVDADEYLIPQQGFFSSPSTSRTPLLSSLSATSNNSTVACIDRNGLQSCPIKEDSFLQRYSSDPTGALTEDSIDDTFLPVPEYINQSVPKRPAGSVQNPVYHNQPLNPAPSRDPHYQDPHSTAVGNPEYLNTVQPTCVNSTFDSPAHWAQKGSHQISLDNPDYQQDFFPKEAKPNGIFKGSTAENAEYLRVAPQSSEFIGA

| SMILES | inhibition |
| --- | --- |
| CN(C(=O)COC(=O)/C=C/c1cccc([N+](=O)[O-])c1)C1CCS(=O)(=O)C1 (stereo not drawn) | 28.2% (inactive) |
| CN(C(=O)CNC(=O)/C=C/c1cccc(Cl)c1)C1CCS(=O)(=O)C1 (stereo not drawn) | 60.7% |
| CN(C(=O)CNC(=O)/C=C/c1cccc(Cl)c1)C1CCS(=O)(=O)CC1 | 46.8% |
